One series deals with T1, human RORγt (Homo sapiens, UniProt P51449).
T1 construct: expressed in transfected cells; host or cells: HEK293T
T1 sequence (P51449 269-508 limits assumed): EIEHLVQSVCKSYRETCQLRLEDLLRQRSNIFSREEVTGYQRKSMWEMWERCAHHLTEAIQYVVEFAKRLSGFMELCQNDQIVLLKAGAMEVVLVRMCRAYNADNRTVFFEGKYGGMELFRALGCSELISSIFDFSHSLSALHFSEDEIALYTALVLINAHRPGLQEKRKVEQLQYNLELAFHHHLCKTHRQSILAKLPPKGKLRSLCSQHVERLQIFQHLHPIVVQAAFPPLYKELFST
In words: Cell-based GAL4-RORγt luciferase reporter assay in HEK293T cells. Conditions: for inhibition at 10 µM: HEK-293T. Here is the method:
FIG. 7A is a graph showing the inhibitory rate of various drugs as predicted by an example deep learning network system. […] In total, 18 purchasable drugs for RORγt were tested using a cell-based luciferase reporter assay. In this assay, GAL4-RORγt, with fused human RORγt LBD and GAL4 DNA binding domain are co-transfected into HEK293T cells with a luciferase reporter gene harboring the GAL4 response element33.
(In general: A reporter such as luciferase makes a cellular process visible.)

For the next series, the target named is T2, ADRA2A (Homo sapiens, UniProt P08913).
T2 sequence (P08913 1-465): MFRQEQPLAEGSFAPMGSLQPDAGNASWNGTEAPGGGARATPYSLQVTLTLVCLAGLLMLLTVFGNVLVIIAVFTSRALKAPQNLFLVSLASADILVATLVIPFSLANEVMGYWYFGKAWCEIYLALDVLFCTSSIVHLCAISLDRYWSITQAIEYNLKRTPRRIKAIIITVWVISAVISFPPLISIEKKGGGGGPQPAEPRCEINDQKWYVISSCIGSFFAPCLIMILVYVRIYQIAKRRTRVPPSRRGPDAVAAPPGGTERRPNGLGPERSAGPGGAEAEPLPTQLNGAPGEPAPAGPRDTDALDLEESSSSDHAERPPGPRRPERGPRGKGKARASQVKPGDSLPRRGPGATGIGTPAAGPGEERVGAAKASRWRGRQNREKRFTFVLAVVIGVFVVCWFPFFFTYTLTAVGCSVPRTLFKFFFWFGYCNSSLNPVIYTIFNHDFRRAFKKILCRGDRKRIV
Particulars: published experimental data; cited from earlier work.

The target in a further series is DRD2 (Homo sapiens, UniProt P14416). Particulars: published experimental data; cited from earlier work.
DRD2, sequence (P14416 whole entry): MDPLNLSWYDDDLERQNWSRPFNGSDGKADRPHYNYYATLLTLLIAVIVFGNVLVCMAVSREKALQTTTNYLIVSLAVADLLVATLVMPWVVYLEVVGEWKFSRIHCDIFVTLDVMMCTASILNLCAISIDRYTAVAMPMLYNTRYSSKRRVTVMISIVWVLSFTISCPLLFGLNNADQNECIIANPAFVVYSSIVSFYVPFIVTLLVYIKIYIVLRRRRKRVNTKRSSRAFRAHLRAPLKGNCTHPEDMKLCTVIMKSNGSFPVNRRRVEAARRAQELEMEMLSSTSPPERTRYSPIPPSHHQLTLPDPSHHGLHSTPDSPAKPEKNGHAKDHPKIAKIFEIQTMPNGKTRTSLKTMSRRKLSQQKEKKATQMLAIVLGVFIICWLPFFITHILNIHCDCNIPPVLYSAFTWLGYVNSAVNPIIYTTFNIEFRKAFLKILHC
The test system of series [1] is normal cell lines or other mice organs. In words: Toxicity on normal cell lines or mice organs. From the text: Accordingly, as predicted by the systems and methods presented herein, topotecan is a good drug candidate in possible treatment of MS.
The next series deals with T3, RORγt (Mus musculus, UniProt P51450).
T3 construct: Concentration of T0901317 in mice brain samples; from tissue; host or cells: mouse brain
T3 sequence (P51450 1-495 isoform P51450-2): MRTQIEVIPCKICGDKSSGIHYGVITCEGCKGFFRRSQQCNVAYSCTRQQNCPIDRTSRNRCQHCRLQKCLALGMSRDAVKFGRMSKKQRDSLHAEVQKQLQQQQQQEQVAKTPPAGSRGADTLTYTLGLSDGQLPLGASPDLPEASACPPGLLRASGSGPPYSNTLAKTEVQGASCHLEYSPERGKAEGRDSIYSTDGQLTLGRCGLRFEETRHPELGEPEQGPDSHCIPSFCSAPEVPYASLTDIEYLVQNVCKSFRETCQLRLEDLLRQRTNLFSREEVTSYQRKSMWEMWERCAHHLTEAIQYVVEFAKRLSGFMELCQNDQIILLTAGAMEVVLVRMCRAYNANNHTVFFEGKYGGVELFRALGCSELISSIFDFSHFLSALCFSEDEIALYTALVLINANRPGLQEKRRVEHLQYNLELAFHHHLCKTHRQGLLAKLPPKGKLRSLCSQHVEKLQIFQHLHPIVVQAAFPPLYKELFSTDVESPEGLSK
Description: Target occupancy in mouse brain with tracer T0901317. Type of series: in vivo, mice. The procedure:
In the data presented in Table 2, T0901317, an orthosteric ligand of RORγt, was used as the tracer for assessing target occupancy of TPT. A Student's t-test was performed to obtain the p-value, and sterile water was used as vehicle.

For series [2], the target named is T4, RORγt-LBD (Homo sapiens, UniProt P51449).
T4 sequence (P51449 269-508 limits assumed): T1 sequence (P51449 269-508 limits assumed)
In words: HPLC direct interaction with RORγt-LBD. The series is classed as binding.

A further series has as its system HEK293T cells. Description: HEK293T cell viability. Type of series: cell-based, human. Particulars: same concentration range as in the reporter assay. From the text:
(§1) FIG. 7B is a graph showing the inhibitory rate as a function of topotecan concentration. […] FIG. 7C is a graph showing the effect of topotecan on fluorescence intensity. […] FIG. 7D is a graph showing the effect of topotecan on cell viability.

Series [3] addresses retinoid X receptor α LBD (RXRα-LBD) (Homo sapiens, UniProt P19793). Description: HPLC direct interaction with RXRα-LBD. Type of series: binding.
A further series deals with EAE mice. In words: Experimental autoimmune encephalomyelitis (EAE) model. Type of series: in vivo, C57BL/6 mice. Here is the method:
FIG. 8A is a schedule of the application of an experimental autoimmune encephalomyelitis (EAE) model. EAE is a most frequently used experimental animal model for human multiple sclerosis. To investigate the therapeutic potential of topotecan in multiple sclerosis, EAE was induced in C57BL/6 mice by active immunization with […] in complete Freund's adjuvant (CFA) followed by pertussis toxin administration, according to the application schedule shown in FIG. 8A. Topotecan (10 mg/kg) or vehicle (sterile water, control) was administered intraperitoneally every four days during the course of EAE. Disease severity was assessed and graded using a five-point scoring system for 15 days.
During the course of EAE, changes in body weight also reflect disease severity. FIG. 8C is a graph showing weight loss in miss after the application of topotecan during EAE.
Multiple sclerosis is a chronic demyelinating disease accompanied by blood-brain barrier disruption. Near-infrared in vivo imaging is further utilized to evaluate the demyelination and blood-brain barrier leakage in EAE mice. A near-infrared fluorescent dye, 3, 3′-diethylthiatricarbocyanine iodide (DBT), easily enter into the brain and selectively binds to myelin fibers45. […] Cy5.5-BSA, a fluorescent BSA conjugate with bright near infrared fluorescence, penetrates the brain when the blood-brain barrier is disrupted.
T helper 17 (Th17) cells are a highly pro-inflammatory lineage of T helper cells defined by their production of interleukin 17 (IL-17)46. RORγt is necessary and sufficient for cytokine IL-17 expression in mouse and human Th17 cells46. Given the inhibitory effects of topotecan against RORγt, it was investigated whether topotecan affects IL-17 expression in EAE mice.

The nature of series [4]: Pharmacokinetics after intraperitoneal injection in mice. Type of series: in vivo. From the text: Where Cmax is the peak concentration, Tmax is the time between administration and reaching Cmax, and t1/2 is the elimination half-life.
For series [5], the target named is T4, RORγt-LBD. In words: Circular dichroism (CD) spectrum of RORγt. The series is classed as binding. The source says: FIG. 7F is a graph illustrating how topotecan alters the variation of circular dichroism (CD) spectrum of RORγt. CD is a powerful method for probing protein and ligand interactions in solution. […] FIG. 7G is a graph plotting CD Signal as a function of wavelength. […] FIG. 7H is an illustration showing how topotecan interacts with multiple important residues on human RORγt. The binding mode of topotecan to human RORγt is examined using molecular docking. […] Put together, by combining information gleaned from the deep learning network model and experimental assays, topotecan is identified as a novel, direct inhibitor of human RORγt.
A general note: Circular dichroism is widely used to follow secondary structure.

Series [6] addresses T4, RORγt-LBD. In words: HTRF coactivator (SRC-1 peptide) recruitment assay. Type of series: biochemical. Particulars: read-out: IC50 (disruption of RORγt-LBD interaction with SRC-1 cofactor peptide). From the text: Nuclear receptors execute their versatile transcriptional functions by recruiting positive and negative regulatory proteins, known as coactivators or corepressors, respectively. Agonists promote interactions between nuclear receptors and coactivators, while antagonists either inhibit coactivator binding or facilitate corepressor recruitment. The functional change of the binding of topotecan on RORγt is investigated by utilizing a HTRF assay to evaluate ligand-induced coactivator recruitment to RORγt.
FIG. 7E is another graph showing the inhibitory rate of topotecan as a function of concentration as predicted by an example deep learning network system.

The target in a further series is firefly luciferase (Photinus pyralis, UniProt P08659). Description: Control firefly luciferase activity experiment. Particulars: control experiment for promiscuous effects on luciferase. The series is classed as cell-based.
firefly luciferase, sequence (P08659 whole entry): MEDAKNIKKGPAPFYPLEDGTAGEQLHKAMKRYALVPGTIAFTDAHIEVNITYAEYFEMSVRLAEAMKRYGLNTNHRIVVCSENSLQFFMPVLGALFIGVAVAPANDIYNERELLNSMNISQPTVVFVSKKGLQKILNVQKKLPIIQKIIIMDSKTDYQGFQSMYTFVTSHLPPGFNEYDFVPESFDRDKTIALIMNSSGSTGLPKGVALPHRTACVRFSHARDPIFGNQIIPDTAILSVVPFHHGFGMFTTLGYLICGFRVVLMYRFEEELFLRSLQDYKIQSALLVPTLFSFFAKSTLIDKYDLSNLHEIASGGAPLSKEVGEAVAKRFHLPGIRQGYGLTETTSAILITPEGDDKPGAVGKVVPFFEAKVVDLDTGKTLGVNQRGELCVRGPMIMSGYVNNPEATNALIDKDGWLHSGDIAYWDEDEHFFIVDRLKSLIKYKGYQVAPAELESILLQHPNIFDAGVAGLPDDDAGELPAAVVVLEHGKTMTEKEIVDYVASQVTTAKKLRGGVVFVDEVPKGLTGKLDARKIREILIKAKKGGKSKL
Description: as §1

Where [7] appears, read: read-out: inhibitory rate, at a concentration of 10 μM, GAL4-RORγt HEK293T luciferase reporter.
[8] abbreviates: at a concentration of 10 μM, GAL4-RORγt HEK293T luciferase reporter, read-out: inhibitory rate.
Where [9] appears, read: 10 mg/kg intraperitoneally every four days.
Where [10] appears, read: mouse, ip, brain, intraperitoneal injection in mice.
Where [11] appears, read: mouse, ip, plasma, intraperitoneal injection in mice.

“And” between values parts separate entries of the source, which are not always exact repeats. Equal values may be shown once. Read-outs that look alike come from different tables or passages of the source.

retinoid X receptor α LBD (RXRα-LBD), sequence (P19793 227-458 limits assumed, species assumed): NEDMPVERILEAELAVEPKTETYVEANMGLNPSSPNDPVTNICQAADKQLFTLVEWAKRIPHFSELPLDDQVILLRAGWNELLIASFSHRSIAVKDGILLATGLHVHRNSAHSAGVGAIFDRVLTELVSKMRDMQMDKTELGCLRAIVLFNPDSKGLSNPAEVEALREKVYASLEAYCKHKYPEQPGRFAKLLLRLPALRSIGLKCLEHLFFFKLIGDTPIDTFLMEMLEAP

On to `CC(=O)S[C@@H]1CC2=CC(=O)CC[C@]2(C)[C@H]2CC[C@@]3(C)[C@@H](CC[C@@]34CCC(=O)O4)[C@H]12` [spironolactone], for which the inhibition at 10 µM on human RORγt (setting [7]) is more than 30%.
In the case of `CCOC(=O)c1ccc(C#Cc2ccc3c(c2)C(C)(C)CCS3)nc1` [tazarotene], at human RORγt (setting [8]), the inhibition at 10 µM was more than 30%.
For the compound `CC(C)(Oc1ccc(CCNC(=O)c2ccc(Cl)cc2)cc1)C(=O)O` [bezafibrate], on human RORγt (setting [8]), the inhibition at 10 µM was more than 30%.
In the case of `CN(CCOc1ccc(CC2SC(=O)NC2=O)cc1)c1ccccn1` (stereo not drawn) [rosiglitazone], the inhibition at 10 µM at human RORγt (setting [8]) was more than 30%.
Take `C#C[C@]1(O)CC[C@H]2[C@@H]3CCC4=CC(=O)CC[C@@H]4[C@H]3CC[C@@]21C` [norethindrone]: the inhibition at 10 µM on human RORγt (setting [7]) is more than 30%.
In general, IC50 refers to the midpoint of a concentration-inhibition curve. For `CC(CCc1ccc(O)cc1)NCCc1ccc(O)c(O)c1` (stereo not drawn) [dobutamine], the IC50 on ADRA2A is 10.8 µM; at DRD2, 8.22 µM.
For orientation: AUC(0-inf) means the area under the concentration-time curve extrapolated to infinity. Higher therefore signals high exposure. Usually AUC(0-t) stands for the area under the concentration-time curve up to a stated or last time point. Read a low AUC(0-t) as low exposure. In general, Cmax refers to the maximum level reached in the sampled fluid or tissue. As usually defined, the Tmax is the time at which the peak concentration occurs. The term half-life denotes how long it takes for the measured level to halve. Read a high half-life as slow decline. Consider `CC[C@@]1(O)C(=O)OCc2c1cc1n(c2=O)Cc2cc3c(CN(C)C)c(O)ccc3nc2-1` [topotecan], for which, on human RORγt (GAL4-RORγt expressing HEK293T cells, read-out: IC50 (antagonistic activity)), the IC50 stood at 430 ± 20 nM. The compound also registered an inhibitory rate against human RORγt (at a concentration of 10 μM, GAL4-RORγt HEK293T luciferase reporter, 10 µM) of 71.0%. In series [1], the “toxicity on normal cell lines or other mice organs” value is on record as “very low toxicity”. Besides, on RORγt (individual mice 1-5, TPT-treated, tracer T0901317, listed as TPT), the “Concentration of T0901317 in mice brain samples” value was 2788.48 ng/g and 4396.96 ng/g and 3365.97 ng/g and 3736.16 ng/g and 3212.96 ng/g. Moreover, at RORγt (mean of 5 TPT-treated mice, vehicle mean 4426.55, P-value 0.0029), the “Concentration of T0901317 in mice brain samples, Mean” value was found to be 3500.11 ng/g. Besides, the “direct interaction by HPLC” value at RORγt-LBD [2] is reported as “directly interacts with RORγt-LBD”. The “effect on HEK293T cell viability” value in the series on HEK293T cells is recorded as “minor effect”. The “direct interaction by HPLC” value in [3] was “not with retinoid X receptor α LBD”. In the series on EAE mice (setting [9]), the “EAE induced body weight loss” value was “more tolerable to EAE induced body weight loss than vehicle-treated mice” and the “onset of clinical symptoms” value is “significantly delay in the onset of clinical symptoms”. The clinical score result in the series with EAE mice (10 mg/kg intraperitoneally every four days, five-point scoring) is “observable reduction of clinical score”. In the series on EAE mice (ELISA), the “IL-17 production in brain and spinal cords” value was “significantly reduces IL-17 production”. In the series on EAE mice (day 20 after immunization), the “demyelination in white matter (LFB staining)” value was “demyelination is significantly reversed” and the “infiltration of leukocytes in spinal cord (H&E staining)” value is given as “infiltration is largely reduced”. Moreover, in the series with EAE mice (near-infrared in vivo imaging), the “DBT near-infrared fluorescence (myelin imaging)” value is on record as “reverses fluorescence” and the “accumulation of Cy5.5-BSA fluorescent probe in the brain (blood-brain barrier leakage)” value is recorded as “higher accumulation of the fluorescent probe in the brain of vehicle treated mice as compared to the topotecan treatment group”. In [4] (mouse models), the brain penetration entry was “ideal brain penetration”. Moreover, in series [4] (setting [10]), the AUC(0-inf) came to 173 ng·h/mL, the AUC(0-t) was 170 ng·h/mL, the peak level (Cmax) was 121 ng/mL and the Tmax was 30 min. For the same compound, in series [4] (setting [11]), the AUC(0-inf) was found to be 3310 ng·h/mL, the AUC(0-t) was found to be 3280 ng·h/mL, the highest level (Cmax) was 3250 ng/mL and the Tmax came to 30 min. The compound also showed a half-life in series [4] (setting [11]) of 289 min. Moreover, the “change of CD spectrum of RORγt (direct binding)” value at RORγt-LBD [5] is given as “alters the variation of CD spectrum of RORγt”. Also, on RORγt-LBD [6], the IC50 is 6.65 ± 0.02 µM. Moreover, the “suppression of control firefly luciferase activity” value at firefly luciferase is recorded as “no suppression is observed”.

Source of the values: patent US20210142173A1, “NETWORK-BASED DEEP LEARNING TECHNOLOGY FOR TARGET IDENTIFICATION AND DRUG REPURPOSING” (THE CLEVELAND CLINIC FOUNDATION, priority 2019, published 2021).
